Test results: patent US5948792A, “Fluorine-containing 1,4-disubstituted piperidine derivatives” (Banyu Pharmaceutical Co., Ltd., priority 1996, dated 1999)
pKi: −log10 of the molar value.

Key:
Muscarinic M2 receptor = target: T1, Muscarinic M2 receptor (Homo sapiens, UniProt P08172); assay: Inhibition of binding of [3H]-N-methylscopolamine to muscarinic M2 receptor; conditions: CHO cell membranes expressing cloned human receptor; 0.2 nM [3H]-N-methylscopolamine, pH 7.4, 2 hours, 25° C; read-out: Ki M2 (inhibitory effects on binding to muscarinic M2 receptor)
T1 construct: purchased Receptor Biology, Inc; host or cells: CHO cells (membranes)
T1 sequence (P08172 1-466): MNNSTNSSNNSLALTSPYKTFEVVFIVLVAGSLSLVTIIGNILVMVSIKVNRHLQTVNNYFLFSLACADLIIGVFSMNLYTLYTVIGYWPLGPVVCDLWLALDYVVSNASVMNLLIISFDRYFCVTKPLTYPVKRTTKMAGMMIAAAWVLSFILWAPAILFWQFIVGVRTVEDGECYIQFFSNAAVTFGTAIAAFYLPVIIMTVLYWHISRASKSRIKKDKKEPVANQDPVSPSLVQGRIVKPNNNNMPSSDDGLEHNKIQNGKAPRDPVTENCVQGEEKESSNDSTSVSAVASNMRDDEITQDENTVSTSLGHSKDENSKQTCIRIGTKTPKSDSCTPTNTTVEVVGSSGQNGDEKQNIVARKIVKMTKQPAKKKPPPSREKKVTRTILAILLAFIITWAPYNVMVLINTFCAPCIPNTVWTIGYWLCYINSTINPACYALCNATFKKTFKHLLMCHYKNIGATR
Protocol: (§1) Tests on Inhibition of Binding to Muscarinic Receptors
(§2) These tests were performed according to a modification of the method of Hargreaves et al. (Br. J. Pharmacol. 107: 494-501, 1992). Membranes from CHO cells expressing cloned human m1-m5 (Receptor Biology, Inc.) were incubated with 0.2 nM [^3 H]-N-methylscopolamine and each a compound of the present invention to be tested in 0.5 ml of 50 mM Tris-HCl-10 mM MgCl2 -1 mM EDTA (pH 7.4) for 2 hours at 25° C. Free and membrane-bound [^3 H]-N-methylscopolamine were separated by filtration over glass filters (UniFilter-GF/C; Packard Instruments Co., Inc.) using cell harvester (Filtermate™ 196; Packard Instruments Co., Inc.). Then the filter was washed four times with 1 ml of ice-cold Tris-HCl (pH 7.4) and dried at 50° C. After adding a scintillator (Microscinti 0; Packard Instruments Co., Inc.), the radioactivity was counted by a liquid scintillation counter (TopCount™; Packard Instruments Co., Inc.). Non-specific binding was measured in the presence of 1 μM N-methylscopolamine.

Muscarinic M3 receptor [1] = target: T2, Muscarinic M3 receptor (Homo sapiens, UniProt P20309); assay: Inhibition of binding of [3H]-N-methylscopolamine to muscarinic M3 receptor; conditions: for pKi: CHO cell membranes expressing cloned human receptor, 0.2 nM [3H]-N-methylscopolamine, pH 7.4, 2 hours, 25° C, read-out: Ki M3 (inhibitory effects on binding to muscarinic M3 receptor); for M2/M3 (ratio of binding Ki): selectivity ratio of Ki values
T2 construct: purchased Receptor Biology, Inc; host or cells: CHO cells (membranes)
Protocol: as §1, §2

Muscarinic M3 Receptor [2] = target: T3, Muscarinic M3 Receptor (Rattus norvegicus, UniProt P08483); assay: Bronchodilation in rats (i.v.), inhibition of acetylcholine-induced increase in airway resistance; format: in vivo; conditions: iv, 5 min, acetylcholine 50 μg/kg i.v. 5 minutes after test compound, read-out: Inhibition of Airway Contraction ED50 iv
T3 construct: male rats of the Sprague-Dawley strain; from tissue; host or cells: airways of living male Sprague-Dawley rats (in vivo)
Protocol: Tests for Antagonism Against Muscarinic M3 Receptor (in vivo)
1-A) Tests for Bronchodilation in Rats (i.v.).
Eight- to eleven-weeks-old male rats of the Sprague-Dawley strain, weighing 380-420 g, were anesthetized with urethane (750 mg/kg. i.p.) and α-chloralose (37.5 mg/kg, i.p.). The bronchus of each rat was intubated, and the right jugular vein was cannulated for drug administration. […] To evoke an increase in airway resistance, acetylcholine (50 μg/kg, i.v.) was administered to the animals. The acetylcholine-induced airway resistance increase was measured 5 minutes before and 5 minutes after administration of test compound, and the ratio of the airway resistance of the latter to the former was calculated. In controls, isotonic sodium chloride solution was used in place of the test compounds and otherwise identical procedures were repeated, the calculated ratio being set to be 100%.

M2 receptor = target: T4, M2 receptor (Rattus norvegicus, UniProt P10980); assay: Antagonism to M2 receptor in an isolated rat right atrium (in vitro); format: cell-based; conditions: carbachol-induced decrease in heart rate
T4 construct: the right atrium was isolated; from tissue; host or cells: isolated right atrium of male SD strain rat
T4 sequence (P10980 1-466): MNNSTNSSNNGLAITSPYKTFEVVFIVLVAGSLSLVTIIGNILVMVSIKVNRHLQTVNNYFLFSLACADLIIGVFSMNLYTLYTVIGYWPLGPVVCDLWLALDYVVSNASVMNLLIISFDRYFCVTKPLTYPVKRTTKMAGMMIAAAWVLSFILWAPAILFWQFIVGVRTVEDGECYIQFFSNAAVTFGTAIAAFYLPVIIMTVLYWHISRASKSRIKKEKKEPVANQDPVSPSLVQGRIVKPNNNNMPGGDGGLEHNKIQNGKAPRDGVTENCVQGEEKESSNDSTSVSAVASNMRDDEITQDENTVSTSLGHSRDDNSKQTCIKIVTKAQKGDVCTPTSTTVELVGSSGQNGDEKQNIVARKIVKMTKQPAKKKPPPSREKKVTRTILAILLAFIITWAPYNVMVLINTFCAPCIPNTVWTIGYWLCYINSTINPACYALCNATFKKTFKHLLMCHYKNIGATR
Protocol: (§3) Tests for Antagonism to Muscarinic Receptors (in vitro)
1) Tests for Antagonism to M2 receptor in an Isolated Rat Right Atrium
These tests were performed according to a conventional method. A male SD strain rat (weighing 300-500 g) was killed by exsanguination, and the right atrium was isolated. This preparation was isometrically suspended in organ bath filled with 20 ml of Krebs-Henseleit solution (gassed with 95% O2 -5% CO2 and kept at 32° C.) with an initial tension of 0.5 g. The heart rate was recorded with a heart rate counter. After the preparation was equilibrated for 30 minutes, carbachol (10^-9 to 10^-6 M) was cumulatively administered in three-fold increasing doses. Thus, a decrease in heart rate was measured to obtain a dose-response curve for the control experiment. After the preparation was washed with fresh solution to restore the heart rate, a test compound was administered thereto. Ten minutes later, carbachol was cumulatively administered again. Responses to carbachol were expressed as percentages based on the heart rate before administration of carbachol as 100%. The antagonistic potency (KB value) of the test compound was determined from the degree of shift of the dose-response curve obtained by treatment with individual test compound of the present invention.

airway M3 receptor = target: T5, airway M3 receptor (Rattus norvegicus, UniProt P08483); assay: Antagonism to the airway M3 receptor in an isolated rat trachea (in vitro); format: cell-based
T5 construct: the trachea was isolated; from tissue; host or cells: isolated trachea of male SD strain rat
Protocol: as §3
2) Tests for Antagonism to the Airway M3 Receptor in an Isolated Rat Trachea
These tests were performed according to a conventional method. A male SD strain rat (weighing 300-500 g) was killed by exsanguination, and the trachea was isolated. Annular segments (2 mm wide) were cut out from the trachea and cut transversely at the anterior cartilage part to make open ring preparation. A preparation was suspended in a Magnus tube filled with 5 ml of Krebs-Henseleit solution (gassed with 95% O2 -5% CO2 and kept at 32° C.) with an initial tension of 1.0 g and a resting tension of 0.6 g. The tension of the preparation was recorded isometrically. After being equilibrated for an hour, the preparation was made to contract twice by treatment with 10^-4 M carbachol, and the second contraction induced by carbachol was used as the reference contraction. After the preparation was washed with fresh solution to be restored to the base line, a test compound was administered thereto (or no treatment was given). Ten minutes later, carbachol (10^-8 to 10^-3 M) was cumulatively administered in three-fold increasing doses to obtain a dose-response curve. The dose-response curve was plotted by expressing responses as percentages based on the reference contraction of the preparation as 100%. The antagonistic potency (K^B value) of the test compound was determined from the degree of shift of the dose-response curve obtained by treatment with the test compound.

T2 sequence (P20309 whole entry): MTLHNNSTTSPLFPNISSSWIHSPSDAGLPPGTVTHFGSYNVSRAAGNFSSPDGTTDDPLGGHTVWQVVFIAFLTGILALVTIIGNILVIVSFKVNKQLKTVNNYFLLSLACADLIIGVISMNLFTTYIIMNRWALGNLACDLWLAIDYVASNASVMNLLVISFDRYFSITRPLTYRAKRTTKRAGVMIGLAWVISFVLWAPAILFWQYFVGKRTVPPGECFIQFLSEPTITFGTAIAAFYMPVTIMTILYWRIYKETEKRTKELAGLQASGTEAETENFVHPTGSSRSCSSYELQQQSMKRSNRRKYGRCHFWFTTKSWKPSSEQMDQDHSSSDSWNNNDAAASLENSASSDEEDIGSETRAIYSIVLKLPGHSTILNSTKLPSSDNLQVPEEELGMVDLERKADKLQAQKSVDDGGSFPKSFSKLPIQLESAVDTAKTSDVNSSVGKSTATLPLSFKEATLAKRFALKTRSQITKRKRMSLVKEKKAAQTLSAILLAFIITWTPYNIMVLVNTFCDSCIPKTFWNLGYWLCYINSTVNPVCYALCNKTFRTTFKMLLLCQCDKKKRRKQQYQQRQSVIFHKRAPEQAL
T3 sequence (P08483 whole entry): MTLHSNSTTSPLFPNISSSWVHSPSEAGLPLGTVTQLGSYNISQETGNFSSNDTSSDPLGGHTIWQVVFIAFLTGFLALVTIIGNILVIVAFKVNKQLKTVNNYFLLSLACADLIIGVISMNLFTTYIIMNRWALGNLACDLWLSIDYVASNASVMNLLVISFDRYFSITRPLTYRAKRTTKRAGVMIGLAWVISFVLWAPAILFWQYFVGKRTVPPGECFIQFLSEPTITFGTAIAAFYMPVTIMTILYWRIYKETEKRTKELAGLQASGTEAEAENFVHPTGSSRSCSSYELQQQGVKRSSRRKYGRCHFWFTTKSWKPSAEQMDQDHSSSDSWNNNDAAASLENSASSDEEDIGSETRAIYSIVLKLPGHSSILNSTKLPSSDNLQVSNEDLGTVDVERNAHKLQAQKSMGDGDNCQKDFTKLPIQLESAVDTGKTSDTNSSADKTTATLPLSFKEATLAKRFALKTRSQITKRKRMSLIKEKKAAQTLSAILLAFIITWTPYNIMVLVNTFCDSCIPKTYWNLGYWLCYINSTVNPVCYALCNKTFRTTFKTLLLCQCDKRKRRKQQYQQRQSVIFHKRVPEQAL
T5 sequence (P08483 whole entry): as above

SMILES	pKi (Muscarinic M2 receptor)	pKi (Muscarinic M3 receptor [1])	M2/M3 (ratio of binding Ki) (Muscarinic M3 receptor [1])	ED50 (Muscarinic M3 Receptor [2])	Kb (M2 receptor)	Kb (airway M3 receptor; isolated rat trachea, carbachol-induced contraction)	M2/M3 (ratio of KB) (airway M3 receptor; selectivity ratio of KB values, right atrium M2 / trachea M3)
COc1cc(N)cc(CN2CCC(NC(=O)[C@](O)(c3ccccc3)[C@@H]3CCC(F)(F)C3)CC2)c1.Cl.Cl [Example 31, (2R)-N-[1-(3-amino-5-methoxybenzyl)piperidin-4-yl]-2-[(1R)-3,3-difluorocyclopentyl]-2-hydroxy-2-phenylacetamide dihydrochloride]	5.00	7.72	520				
Cc1cc(N)cc(CN2CCC(NC(=O)[C@](O)(c3ccccc3)[C@@H]3CCC(F)(F)C3)CC2)c1.Cl.Cl [Example 22, (2R)-N-[1-(3-amino-5-methylbenzyl)piperidin-4-yl]-2-[(1R)-3,3-difluorocyclopentyl]-2-hydroxy-2-phenylacetamide dihydrochloride]	4.89	7.72	680				
O=C(NC1CCN(Cc2ccccn2)CC1)[C@](O)(c1ccccc1)[C@@H]1CCC(F)(F)C1 [Example 14, (2R)-N-[1-(2-pyridylmethyl)piperidin-4-yl]-2-[(1R)-3,3-difluorocyclopentyl]-2-hydroxy-2-phenylacetamide]	5.85	8.00	140				
Nc1cc(N)cc(CN2CCC(NC(=O)[C@](O)(c3ccccc3)[C@@H]3CCC(F)(F)C3)CC2)c1 [Example 27, (2R)-N-[1-(3,5-diaminobenzyl)piperidin-4-yl]-2-[(1R)-3,3-difluorocyclopentyl]-2-hydroxy-2-phenylacetamide]	5.38	7.70	210				
CN1C2CCC1CC(OC(=O)C(CO)c1ccccc1)C2 (stereo not shown) [atoropine, reference compound]				0.0043 mg/kg			
COc1cccc(CN2CCC(NC(=O)[C@](O)(c3ccccc3)[C@@H]3CCC(F)(F)C3)CC2)c1 [Example 15, (2R)-N-[1-(3-methoxybenzyl)piperidin-4-yl]-2-[(1R)-3,3-difluorocyclopentyl]-2hydroxy-2-phenylacetamide]	6.00						
CC(C)=CCCN1CCC(NC(=O)[C@](O)(c2ccccc2)[C@@H]2CCC(F)(F)C2)CC1 [Example 1, (2R)-N-[1-(4-methyl-3-pentenyl)piperidin-4-yl]-2-[(1R)-3,3-difluorocyclopentyl]-2-hydroxy-2-phenylacetamide]	5.49	8.26	590	0.033 mg/kg	1000 nM	6.3 nM	160
O=C(NC1CCN(Cc2ccoc2)CC1)[C@](O)(c1ccccc1)[C@@H]1CCC(F)(F)C1 [Example 12, (2R)-N-[1-(3-furylmethyl)piperidin-4-yl]-2-[(1R)-3,3-difluorocyclopentyl]-2-hydroxy-2-phenylacetamide]	5.07						
Cc1cccc(CN2CCC(NC(=O)[C@](O)(c3ccccc3)[C@@H]3CCC(F)(F)C3)CC2)n1 [Example 10, (2R)-N-[1-(6-methylpyridin-2-ylmethyl)piperidin-4-yl]-2-[(1R)-3,3-difluorocyclopentyl]-2-hydroxy-2-phenylacetamide]	4.77	8.05	1900				
COc1cc(N)nc(CN2CCC(NC(=O)[C@](O)(c3ccccc3)[C@@H]3CCC(F)(F)C3)CC2)c1.Cl.Cl [Example 21, (2R)-N-[1-(6-amino-4-methoxypyridin-2-ylmethyl)piperidin-4-yl]-2-[(1R)-3,3-difluorocyclopentyl]-2-hydroxy-2-phenylacetamide dihydrochloride]	4.30	7.66	2300				
